# Experimental data from patent US8188085B2, “Antifungal agents” (Merck Sharp & Dohme Corp., priority 2008, dated 2012).
# Target: glucan synthase (GS) prepared from Candida albicans MY1055 (Candida albicans, UniProt O13428)
# Assay: Glucan synthase inhibition (polymerization assay, 96-well)
# Assay type: biochemical
# Conditions: GS from C. albicans MY1055; 60 min incubation at 22° C.; read-out: Candida Albicans GS IC50 (converted)
# Protocol: The in vitro evaluation of glucan synthase inhibitory activity of compounds was measured in a polymerization assay in 96-well format. Each well contained 100 μL of ^3H-UDPG at 0.5 mM (6000 to 8000 dpm/nmol), 50 mM HEPES pH 7.5 (Sigma), 10% w/v glycerol (Sigma), 1.5 mg/mL bovine serum albumin (Sigma A 9647. Lot 44H0190), 25 mM KF (Fisher), 1 mM EDTA (Gibco ULTRAPURE), 25 μM GTP-γ-S, enzyme sufficient to give 3 to 6 nmoles incorporation during the 60 min incubation at 22° C., and test compound added from wells in 3-fold serial dilutions in 100% DMSO (1 μL/well). The reaction was stopped by the addition of 100 μL of 20% trichloroacetic acid. Plates were chilled for a minimum of 10 min, and precipitated glucan collected by filtration on GF/C plates (Packard UNIFILTER®-96), washed with 5 cycles of water (about 1 mL/well each cycle) using a Packard FILTERMATE HARVESTER. 40 μL/well scintillation fluid (Packard ULTIMA GOLD TM-XR) was added and the sealed plates counted in a WALLAC BETA counter in top-counting mode at an efficiency of approximately 40%.
# Stock solutions were stored at 10 mg/mL in DMSO at −20° C. For each new enzyme preparation, the initial titration performed started at 1 mg/mL, which was prepared by making a 10-fold dilution in DMSO (5 μL to 50 μL). 40 μL of this stock was placed in column 12 of a round-bottomed 96-well microtiter plate. 40 μL DMSO was added to columns 1 to 11 in the same row and ten 3-fold serial dilutions performed, by transferring 20 μL from column 12 to column 11 etc., with 4 mixings before each transfer. No test compound was transferred to from column 2 to column 1. Duplicate aliquots of 1 μL of all 12 dilutions were then transferred to the side walls of a 96-well Bioblock 1.1 mL plate (Fisher brand) to create two rows.
# Graphs of the primary data were created in PRISM software (the average of two determinations) using PRISM's curve fitting program (sigmoidal dose response non-linear regression). The amount of compound required to inhibit glucan synthase activity by 50% in this assay (IC50−ng/mL) was calculated.
# Routine analysis was performed with glucan synthase (GS) prepared from Candida albicans MY1055 by the following procedure: MY1055 was grown in 10 liters YPD medium (10 g yeast extract, 20 g tryptone, 20 g glucose per liter) with vigorous shaking at 30° C., to early stationary phase. Cells were harvested by centrifugation, the pellet was washed and frozen at −70° C. until breakage. Thawed pellets were shaken with an equal volume of breakage buffer (50 mM HEPES pH 7.4, 10% glycerol, 1 mM EDTA, 1 mM PMSF, 1 mM DTT) and 4 times their weight of 0.5 mm acid washed glass beads for 2 hours at 4° C. Extent of breakage was assessed visually at 40× magnification. After low speed centrifugation to remove cell debris, the supernatant was centrifuged at 100,000×g for 60 min. to separate membranes plus ribosomes from cytoplasmic components. Membranes were further washed two additional times with breakage buffer using the same centrifugation conditions and finally suspended in breakage buffer at 25 to 30 mg/mL protein (Biorad) for storage at −70° C. Extraction of GS activity from membranes was performed at a protein concentration of 5 mg/mL in extraction buffer (50 mM NaPO4 pH 7.5, 0.1 M KCl, 0.1M Na citrate, 20% glycerol, 5 μM GTP-γ-S, 1 mM DTT, 1 mM PMSF, 3 μg/mL pepstatin) plus 0.25% W1 by gentle mixing at 4° C. for 60 min, followed by centrifugation at 100,000×g for 60 min. After centrifugation, clear supernatant was removed from a pellet consisting of a hard layer usually with small amounts of gelatinous unextracted membranes above it.
# Trapping was initiated immediately by 5-fold dilution in trapping buffer (50 mM HEPES pH 7.5, 10 mM KF, 1 mM EDTA, 2 mg/mL BSA) plus 2.5 mM UDPG and 10 μM GTP-γ-S. After incubation at 25° C. for 60 to 90 minutes, glucan was harvested by low speed centrifugation (3,000×g, 10 min). […]
# glucan synthase (GS) prepared from Candida albicans MY1055, sequence (O13428 1-1897): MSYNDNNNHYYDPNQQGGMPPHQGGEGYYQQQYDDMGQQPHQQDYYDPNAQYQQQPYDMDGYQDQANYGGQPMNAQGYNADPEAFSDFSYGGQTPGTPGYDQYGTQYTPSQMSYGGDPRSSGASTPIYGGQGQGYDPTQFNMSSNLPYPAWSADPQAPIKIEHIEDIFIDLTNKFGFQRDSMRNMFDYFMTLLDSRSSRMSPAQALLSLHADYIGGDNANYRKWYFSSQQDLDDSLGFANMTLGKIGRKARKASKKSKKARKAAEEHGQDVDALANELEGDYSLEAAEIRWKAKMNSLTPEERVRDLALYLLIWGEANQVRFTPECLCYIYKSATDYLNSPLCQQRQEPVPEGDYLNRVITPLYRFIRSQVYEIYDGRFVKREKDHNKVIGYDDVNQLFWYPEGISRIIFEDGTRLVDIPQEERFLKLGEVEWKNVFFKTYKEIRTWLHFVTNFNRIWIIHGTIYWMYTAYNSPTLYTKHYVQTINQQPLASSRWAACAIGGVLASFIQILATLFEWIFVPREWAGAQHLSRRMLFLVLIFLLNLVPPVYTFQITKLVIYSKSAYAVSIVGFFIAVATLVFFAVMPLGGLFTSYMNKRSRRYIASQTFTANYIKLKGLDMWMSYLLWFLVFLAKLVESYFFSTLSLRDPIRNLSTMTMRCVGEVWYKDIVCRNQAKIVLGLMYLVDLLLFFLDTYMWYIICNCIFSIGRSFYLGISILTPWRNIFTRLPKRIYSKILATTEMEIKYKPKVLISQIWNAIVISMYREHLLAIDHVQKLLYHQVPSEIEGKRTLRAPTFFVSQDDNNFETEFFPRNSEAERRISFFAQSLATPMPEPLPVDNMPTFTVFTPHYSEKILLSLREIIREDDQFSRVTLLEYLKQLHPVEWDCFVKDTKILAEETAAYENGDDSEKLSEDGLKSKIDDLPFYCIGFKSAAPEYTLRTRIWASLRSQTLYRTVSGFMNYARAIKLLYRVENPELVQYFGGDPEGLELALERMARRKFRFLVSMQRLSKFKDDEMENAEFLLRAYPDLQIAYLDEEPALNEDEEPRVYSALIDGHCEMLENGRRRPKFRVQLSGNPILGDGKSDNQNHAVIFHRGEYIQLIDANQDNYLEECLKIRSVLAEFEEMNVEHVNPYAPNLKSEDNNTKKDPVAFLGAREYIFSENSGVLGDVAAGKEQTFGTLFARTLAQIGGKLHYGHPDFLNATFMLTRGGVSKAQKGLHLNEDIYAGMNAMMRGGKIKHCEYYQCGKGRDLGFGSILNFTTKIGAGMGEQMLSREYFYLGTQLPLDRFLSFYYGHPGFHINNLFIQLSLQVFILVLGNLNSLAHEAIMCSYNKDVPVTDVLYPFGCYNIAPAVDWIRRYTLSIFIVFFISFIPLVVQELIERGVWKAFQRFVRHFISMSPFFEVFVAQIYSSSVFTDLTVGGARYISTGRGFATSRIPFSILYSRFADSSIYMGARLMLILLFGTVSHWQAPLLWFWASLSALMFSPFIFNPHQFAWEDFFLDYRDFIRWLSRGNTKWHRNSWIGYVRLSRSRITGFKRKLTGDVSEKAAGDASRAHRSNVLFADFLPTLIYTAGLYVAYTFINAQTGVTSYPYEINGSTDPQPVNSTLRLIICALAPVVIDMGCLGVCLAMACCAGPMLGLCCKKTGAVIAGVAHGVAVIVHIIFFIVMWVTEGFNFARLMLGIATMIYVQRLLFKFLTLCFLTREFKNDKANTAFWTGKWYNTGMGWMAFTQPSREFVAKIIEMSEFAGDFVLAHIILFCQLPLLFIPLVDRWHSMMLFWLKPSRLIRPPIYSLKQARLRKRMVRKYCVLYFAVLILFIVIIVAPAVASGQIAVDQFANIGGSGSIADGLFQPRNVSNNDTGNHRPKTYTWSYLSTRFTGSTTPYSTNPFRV
row,SMILES,IC50 [nM]
1,"CC(C)[C@@H](C)[C@@]1(C)CC[C@]2(C)[C@H]3CC[C@@H]4[C@@]5(COC[C@@]4(C)[C@@H](OC[C@](C)(N)C(C)C)[C@H](n4ncnc4N)C5)C3=CC[C@@]2(C)[C@@H]1C(=O)O [Example 31, (1S,4aR,6aS,7R,8R,10aR,10bR,12aR,14R,15R)-15-[[(2R)-2-amino-2,3-dimethylbutyl]oxy]-14-(5-amino-1H-1,2,4-triazol-1-yl)-8-[(1R)-1,2-dimethylpropyl]-1,6,6a,7,8,9,10,10a,10b,11,12,12a-dodecahydro-1,6a,8,10a-tetramethyl-4H-1,4a-propano-2H-phenanthro[1,2-c]pyran-7-carboxylic acid]",15.3
2,"CC(C)[C@@H](C)[C@@]1(C)CC[C@]2(C)[C@H]3CC[C@@H]4[C@@]5(COC[C@@]4(C)[C@@H](OC[C@](C)(N)C(C)C)[C@H](n4nc(Cl)nc4Cl)C5)C3=CC[C@@]2(C)[C@@H]1C(=O)O [Example 34, (1S,4aR,6aS,7R,8R,10aR,10bR,12aR,14R,15R)-15-[[(2R)-2-amino-2,3-dimethylbutyl]oxy]-14-(3,5-dichloro-1H-1,2,4-triazol-1-yl)-8-[(1R)-1,2-dimethylpropyl]-1,6,6a,7,8,9,10,10a,10b,11,12,12a-dodecahydro-1,6a,8,10a-tetramethyl-4H-1,4a-propano-2H-phenanthro[1,2-c]pyran-7-carboxylic acid]",46.6
3,"CC(C)[C@@H](C)[C@@]1(C)CC[C@]2(C)[C@H]3CC[C@@H]4[C@@]5(COC[C@@]4(C)[C@@H](OC[C@](C)(N)C(C)C)[C@H](n4nc(N)nc4-c4ccccc4)C5)C3=CC[C@@]2(C)[C@@H]1C(=O)O [Example 36, (1S,4aR,6aS,7R,8R,10aR,10bR,12aR,14R,15R)-15-[[(2R)-2-amino-2,3-dimethylbutyl]oxy]-14-(3-amino-5-phenyl-1H-1,2,4-triazol-1-yl)-8-[(1R)-1,2-dimethylpropyl]-1,6,6a,7,8,9,10,10a,10b,11,12,12a-dodecahydro-1,6a,8,10a-tetramethyl-4H-1,4a-propano-2H-phenanthro[1,2-c]pyran-7-carboxylic acid]",13.7
4,"CN[C@@](C)(CO[C@H]1[C@H](n2ncnc2C(=O)NC(C)C)C[C@@]23COC[C@]1(C)[C@@H]2CC[C@H]1C3=CC[C@@]2(C)[C@H](C(=O)O)[C@@](C)([C@H](C)C(C)C)CC[C@]12C)C(C)C [Example 38, (1S,4aR,6aS,7R,8R,10aR,10bR,12aR,14R,15R)-15-[[(2R)-2,3-dimethyl-2-(methylamino)butyl]oxy]-8-[(1R)-1,2-dimethylpropyl]-14-[5-[[(1-methylethyl)amino]carbonyl]-1H-1,2,4-triazol-1-yl]-1,6,6a,7,8,9,10,10a,10b,11,12,12a-dodecahydro-1,6a,8,10a-tetramethyl-4H-1,4a-propano-2H-phenanthro[1,2-c]pyran-7-carboxylic acid]",17.6
5,"CC(C)[C@@H](C)[C@@]1(C)CC[C@]2(C)[C@H]3CC[C@@H]4[C@@]5(COC[C@@]4(C)[C@@H](OC[C@](C)(N)C(C)(C)C)[C@H](n4ncnc4C(N)=O)C5)C3=CC[C@@]2(C)[C@@H]1C(=O)O [Example 44, (1S,4aR,6aS,7R,8R,10aR,10bR,12aR,14R,15R)-14-[5-(aminocarbonyl)-1H-1,2,4-triazol-1-yl]-15-[[(2R)-2-amino-2,3,3-trimethylbutyl]oxy]-8-[(1R)-1,2-dimethylpropyl]-1,6,6a,7,8,9,10,10a,10b,11,12,12a-dodecahydro-1,6a,8,10a-tetramethyl-4H-1,4a-propano-2H-phenanthro[1,2-c]pyran-7-carboxylic acid]",4.31
6,"CN[C@@](C)(CO[C@H]1[C@H](n2ncnc2C(=O)NC2CC2)C[C@@]23COC[C@]1(C)[C@@H]2CC[C@H]1C3=CC[C@@]2(C)[C@H](C(=O)O)[C@@](C)([C@H](C)C(C)C)CC[C@]12C)C(C)C [Example 64, (1S,4aR,6aS,7R,8R,10aR,10bR,12aR,14R,15R)-14-[5-[(cyclopropylamino)carbonyl]-1H-1,2,4-triazol-1-yl]-15-[[(2R)-2,3-dimethyl-2-(methylamino)butyl]oxy]-8-[(1R)-1,2-dimethylpropyl]-1,6,6a,7,8,9,10,10a,10b,11,12,12a-dodecahydro-1,6a,8,10a-tetramethyl-4H-1,4a-propano-2H-phenanthro[1,2-c]pyran-7-carboxylic acid]",13.6
7,"CN[C@@](C)(CO[C@H]1[C@H](n2ncnc2C(=O)NCCF)C[C@@]23COC[C@]1(C)[C@@H]2CC[C@H]1C3=CC[C@@]2(C)[C@H](C(=O)O)[C@@](C)([C@H](C)C(C)C)CC[C@]12C)C(C)C [Example 77, (1S,4aR,6aS,7R,8R,10aR,10bR,12aR,14R,15R)-15-[[(2R)-2,3-dimethyl-2-(methylamino)butyl]oxy]-8-[(1R)-1,2-dimethylpropyl]-14-[5-[[(2-fluoroethyl)amino]carbonyl]-1H-1,2,4-triazol-1-yl]-1,6,6a,7,8,9,10,10a,10b,11,12,12a-dodecahydro-1,6a,8,10a-tetramethyl-4H-1,4a-propano-2H-phenanthro[1,2-c]pyran-7-carboxylic acid]",8.09

# More lines, now with the values ahead:
row,IC50 [nM],SMILES
1,10.5,"CC(C)[C@@H](C)[C@@]1(C)CC[C@]2(C)[C@H]3CC[C@@H]4[C@@]5(COC[C@@]4(C)[C@@H](OC[C@](C)(N)C(C)C)[C@H](n4ncnc4C(=O)NCC(F)(F)F)C5)C3=CC[C@@]2(C)[C@@H]1C(=O)O [Example 80, (1S,4aR,6aS,7R,8R,10aR,10bR,12aR,14R,15R)-15-[[(2R)-2-amino-2,3-dimethylbutyl]oxy]-8-[(1R)-1,2-dimethylpropyl]-14-[5-[[(2,2,2-trifluoroethyl)amino]carbonyl]-1H-1,2,4-triazol-1-yl]-1,6,6a,7,8,9,10,10a,10b,11,12,12a-dodecahydro-1,6a,8,10a-tetramethyl-4H-1,4a-propano-2H-phenanthro[1,2-c]pyran-7-carboxylic acid]"
2,12,"CC(C)[C@@H](C)[C@@]1(C)CC[C@]2(C)[C@H]3CC[C@@H]4[C@@]5(COC[C@@]4(C)[C@@H](OC[C@](C)(N)C(C)C)[C@H](n4ncnc4C(=O)NCCN(C)C)C5)C3=CC[C@@]2(C)[C@@H]1C(=O)O [Example 83, (1S,4aR,6aS,7R,8R,10aR,10bR,12aR,14R,15R)-15-[[(2R)-2-amino-2,3-dimethylbutyl]oxy]-14-[5-[[[2-(dimethylamino)ethyl]amino]carbonyl]-1H-1,2,4-triazol-1-yl]-8-[(1R)-1,2-dimethylpropyl]-1,6,6a,7,8,9,10,10a,10b,11,12,12a-dodecahydro-1,6a,8,10a-tetramethyl-4H-1,4a-propano-2H-phenanthro[1,2-c]pyran-7-carboxylic acid]"
3,70.5,"CC(C)[C@@H](C)[C@@]1(C)CC[C@]2(C)[C@H]3CC[C@@H]4[C@@]5(COC[C@@]4(C)[C@@H](OC[C@](C)(N)C(C)C)[C@H](n4ncnc4C(=O)N4CCOCC4)C5)C3=CC[C@@]2(C)[C@@H]1C(=O)O [Example 86, (1S,4aR,6aS,7R,8R,10aR,10bR,12aR,14R,15R)-15-[[(2R)-2-amino-2,3-dimethylbutyl]oxy]-8-[(1R)-1,2-dimethylpropyl]-14-[5-(4-morpholinylcarbonyl)-1H-1,2,4-triazol-1-yl]-1,6,6a,7,8,9,10,10a,10b,11,12,12a-dodecahydro-1,6a,8,10a-tetramethyl-4H-1,4a-propano-2H-phenanthro[1,2-c]pyran-7-carboxylic acid]"
